Values of other authors in patent publication US20100120907A1, “DERIVATIVES OF AMYRIS ALCOHOLS AND EUDESMOL FOR TREATING COLD SORES AND HERPES” (priority 2007, published 2010).

Assays:
cold sores = conditions: topical cream
[1] = target: omega-agatoxin IVA-sensitive (P/Q-type) Ca^2+ channel (Rattus norvegicus, UniProt P54282)
neurogenic inflammation = conditions: following electrical stimulation of rat trigeminal ganglion
Na^+, K(+)-ATPase = conditions: among the various kinds of phosphatases examined
angiogenesis = conditions: mice
[2] = tested on: human umbilical vein endothelial cells (HUVEC)
[3] = target: nicotinic ACh receptor channel (Homo sapiens, UniProt P02708+P11230+Q04844+Q07001)
[4] = tested on: extracellular signal-regulated kinase (ERK) ½; conditions: 100 microM
[5] = tested on: porcine brain microvascular endothelial cells; conditions: 50-100 microM
[6] = tested on: ornithine decarboxylase (ODC); conditions: mice
skin papillomas = conditions: DMBA-initiated, TPA-promoted, mice

Chain of nicotinic ACh receptor channel (P02708 21-457): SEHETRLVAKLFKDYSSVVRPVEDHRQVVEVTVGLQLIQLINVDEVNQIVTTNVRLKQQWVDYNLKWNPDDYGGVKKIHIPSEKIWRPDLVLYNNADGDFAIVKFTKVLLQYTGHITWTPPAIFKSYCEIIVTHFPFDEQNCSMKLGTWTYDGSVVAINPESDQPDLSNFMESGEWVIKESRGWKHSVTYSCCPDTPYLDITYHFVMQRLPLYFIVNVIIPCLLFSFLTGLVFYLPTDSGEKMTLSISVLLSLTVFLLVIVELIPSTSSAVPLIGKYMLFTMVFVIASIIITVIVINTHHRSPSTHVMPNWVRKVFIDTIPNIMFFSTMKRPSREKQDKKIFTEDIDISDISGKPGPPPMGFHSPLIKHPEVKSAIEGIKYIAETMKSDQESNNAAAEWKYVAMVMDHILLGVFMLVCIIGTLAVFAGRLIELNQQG
Chain of nicotinic ACh receptor channel (P11230 24-501): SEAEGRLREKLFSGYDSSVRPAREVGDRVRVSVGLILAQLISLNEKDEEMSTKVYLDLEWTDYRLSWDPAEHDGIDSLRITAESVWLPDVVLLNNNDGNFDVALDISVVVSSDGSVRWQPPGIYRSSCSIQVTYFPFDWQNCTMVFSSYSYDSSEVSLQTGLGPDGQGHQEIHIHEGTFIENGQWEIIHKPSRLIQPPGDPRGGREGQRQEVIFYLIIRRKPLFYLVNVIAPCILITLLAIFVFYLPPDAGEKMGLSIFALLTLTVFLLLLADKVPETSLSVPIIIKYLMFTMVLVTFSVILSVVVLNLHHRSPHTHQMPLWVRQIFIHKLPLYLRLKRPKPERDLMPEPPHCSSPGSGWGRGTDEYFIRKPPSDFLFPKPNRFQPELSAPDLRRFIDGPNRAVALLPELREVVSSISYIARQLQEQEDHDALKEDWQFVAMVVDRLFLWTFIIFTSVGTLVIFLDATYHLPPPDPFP
Chain of nicotinic ACh receptor channel (Q07001 22-517): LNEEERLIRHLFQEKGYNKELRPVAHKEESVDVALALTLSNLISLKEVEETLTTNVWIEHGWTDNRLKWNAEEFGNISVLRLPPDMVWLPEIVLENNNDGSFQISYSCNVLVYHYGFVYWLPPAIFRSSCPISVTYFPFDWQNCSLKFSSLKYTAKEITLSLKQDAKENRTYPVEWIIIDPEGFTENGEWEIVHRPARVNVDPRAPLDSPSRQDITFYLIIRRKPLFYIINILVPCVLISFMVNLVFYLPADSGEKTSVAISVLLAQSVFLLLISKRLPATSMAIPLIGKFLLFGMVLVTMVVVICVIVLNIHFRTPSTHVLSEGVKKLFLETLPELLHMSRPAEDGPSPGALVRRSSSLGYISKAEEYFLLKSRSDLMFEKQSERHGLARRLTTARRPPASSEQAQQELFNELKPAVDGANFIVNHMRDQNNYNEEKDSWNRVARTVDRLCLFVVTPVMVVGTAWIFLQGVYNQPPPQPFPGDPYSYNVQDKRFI
Chain of nicotinic ACh receptor channel (Q04844 21-493): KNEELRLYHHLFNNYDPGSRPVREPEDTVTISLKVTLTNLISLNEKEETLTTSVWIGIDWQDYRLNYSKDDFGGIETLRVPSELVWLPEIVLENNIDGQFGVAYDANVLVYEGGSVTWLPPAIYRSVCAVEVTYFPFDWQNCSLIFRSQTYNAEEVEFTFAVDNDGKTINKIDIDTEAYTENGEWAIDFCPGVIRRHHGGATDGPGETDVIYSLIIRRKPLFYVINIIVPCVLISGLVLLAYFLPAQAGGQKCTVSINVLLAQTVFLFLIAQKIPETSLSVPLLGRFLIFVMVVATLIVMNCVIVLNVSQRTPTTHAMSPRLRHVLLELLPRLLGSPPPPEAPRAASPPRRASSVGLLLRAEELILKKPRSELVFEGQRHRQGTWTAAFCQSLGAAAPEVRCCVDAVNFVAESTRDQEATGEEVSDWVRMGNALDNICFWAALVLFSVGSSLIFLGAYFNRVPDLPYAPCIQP
Chain of omega-agatoxin IVA-sensitive (P/Q-type) Ca^2+ channel (P54282 whole entry): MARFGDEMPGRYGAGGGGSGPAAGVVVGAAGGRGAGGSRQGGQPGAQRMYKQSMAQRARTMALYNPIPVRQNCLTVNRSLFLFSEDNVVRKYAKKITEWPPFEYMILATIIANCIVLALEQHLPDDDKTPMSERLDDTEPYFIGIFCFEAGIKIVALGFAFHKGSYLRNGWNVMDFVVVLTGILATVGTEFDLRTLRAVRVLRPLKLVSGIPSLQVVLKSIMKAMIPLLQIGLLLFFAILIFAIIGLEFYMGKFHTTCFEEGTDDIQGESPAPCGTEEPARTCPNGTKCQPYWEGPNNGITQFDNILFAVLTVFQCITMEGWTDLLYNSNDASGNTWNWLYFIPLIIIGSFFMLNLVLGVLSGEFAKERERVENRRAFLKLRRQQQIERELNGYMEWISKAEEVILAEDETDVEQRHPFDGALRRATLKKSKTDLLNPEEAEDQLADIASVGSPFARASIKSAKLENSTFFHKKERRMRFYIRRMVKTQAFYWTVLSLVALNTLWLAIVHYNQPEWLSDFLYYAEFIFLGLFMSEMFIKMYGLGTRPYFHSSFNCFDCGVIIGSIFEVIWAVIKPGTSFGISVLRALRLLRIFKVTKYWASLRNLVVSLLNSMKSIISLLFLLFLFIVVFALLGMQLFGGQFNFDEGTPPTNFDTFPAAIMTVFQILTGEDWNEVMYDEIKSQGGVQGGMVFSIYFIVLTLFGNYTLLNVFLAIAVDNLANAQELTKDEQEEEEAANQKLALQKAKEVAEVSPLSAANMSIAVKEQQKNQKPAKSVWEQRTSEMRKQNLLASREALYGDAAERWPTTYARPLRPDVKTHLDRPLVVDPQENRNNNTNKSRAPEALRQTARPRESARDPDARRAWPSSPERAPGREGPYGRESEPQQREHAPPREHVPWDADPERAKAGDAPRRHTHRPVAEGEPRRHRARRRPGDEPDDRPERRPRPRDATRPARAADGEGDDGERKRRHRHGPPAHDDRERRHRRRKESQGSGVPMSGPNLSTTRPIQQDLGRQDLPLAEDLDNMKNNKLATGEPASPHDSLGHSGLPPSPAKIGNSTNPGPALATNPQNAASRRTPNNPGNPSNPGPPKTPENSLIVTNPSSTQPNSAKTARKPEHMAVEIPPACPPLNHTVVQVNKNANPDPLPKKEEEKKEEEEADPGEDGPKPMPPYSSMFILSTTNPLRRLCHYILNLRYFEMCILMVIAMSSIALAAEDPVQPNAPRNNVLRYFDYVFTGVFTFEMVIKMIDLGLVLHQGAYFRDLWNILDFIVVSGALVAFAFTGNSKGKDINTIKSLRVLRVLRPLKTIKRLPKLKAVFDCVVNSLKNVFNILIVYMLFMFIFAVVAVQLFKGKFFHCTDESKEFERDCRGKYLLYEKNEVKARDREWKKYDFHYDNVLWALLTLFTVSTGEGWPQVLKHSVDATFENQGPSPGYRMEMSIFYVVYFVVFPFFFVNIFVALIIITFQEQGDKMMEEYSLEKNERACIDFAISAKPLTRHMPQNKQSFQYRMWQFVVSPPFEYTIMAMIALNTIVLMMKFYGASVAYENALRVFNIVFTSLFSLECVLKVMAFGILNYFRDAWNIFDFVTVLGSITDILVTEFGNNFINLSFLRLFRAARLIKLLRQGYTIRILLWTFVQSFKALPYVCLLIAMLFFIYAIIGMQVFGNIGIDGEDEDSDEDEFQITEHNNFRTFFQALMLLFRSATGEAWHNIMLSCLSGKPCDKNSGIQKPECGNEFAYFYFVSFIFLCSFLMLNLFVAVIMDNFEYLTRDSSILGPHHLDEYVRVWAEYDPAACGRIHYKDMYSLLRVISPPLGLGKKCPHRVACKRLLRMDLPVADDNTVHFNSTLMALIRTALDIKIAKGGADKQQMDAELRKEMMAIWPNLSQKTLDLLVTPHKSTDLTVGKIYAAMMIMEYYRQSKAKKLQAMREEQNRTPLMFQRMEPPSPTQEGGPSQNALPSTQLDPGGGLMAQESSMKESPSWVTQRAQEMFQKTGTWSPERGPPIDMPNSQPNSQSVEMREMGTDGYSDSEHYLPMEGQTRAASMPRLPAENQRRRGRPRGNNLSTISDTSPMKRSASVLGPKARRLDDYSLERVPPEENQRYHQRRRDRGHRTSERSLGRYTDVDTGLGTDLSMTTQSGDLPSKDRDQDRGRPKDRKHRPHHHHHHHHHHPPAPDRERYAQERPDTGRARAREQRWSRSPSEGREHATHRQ

Nc1nc2c(ncn2COCCO)c(=O)[nH]1 [Acyclovir]
reduction of healing time / duration of cold sores (cold sores): up to ½

CC1=CCC[C@]2(C)CC[C@@H](C(C)(C)O)C[C@@H]12 [α-eudesmol]
inhibition of P/Q-type Ca2+ channel [1]: potently inhibits | inhibition of neurogenic inflammation (neurogenic inflammation): potently inhibits

C=C1CCC[C@]2(C)CC[C@@H](C(C)(C)O)C[C@@H]12 [β-eudesmol]
neurite extension (PC-12 cells; 100 and 150 μM): significantly induced neurite extension | [3H]thymidine incorporation (PC-12 cells; at the highest concentration (150 μM)): suppression | inhibition of Na+,K+-ATPase activity (Na^+, K(+)-ATPase): most strongly | angiogenesis in subcutaneously implanted Matrigel plugs and in adjuvant-induced granuloma (angiogenesis): significantly inhibited | HUVEC migration stimulated by bFGF [2]: inhibited | tube formation by HUVEC in Matrigel [2]: inhibited | proliferation ([2]; 50-100 microM): inhibited | block of nicotinic ACh receptor channel [3]: blocked the nicotinic ACh receptor channel in both the open and closed conformations | desensitization of the nicotinic ACh receptor [3]: accelerated the desensitization | phosphorylation of ERK ½ induced by bFGF or vascular endothelial growth factor [4]: blocked | proliferation [5]: inhibited

santalol
decrease of TPA-induced ODC activity [6]: 70% | decrease of papilloma incidence (skin papillomas): 67% | decrease of papilloma multiplicity (skin papillomas): 96%
